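Assay format: 96-well plates, 48-hour exposure. Abbreviation: GI50, concentration required for 50% inhibition of growth.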 Activity calls are given as the source filed them. No stated cut-off is given here; in the data, active = GI50 up to about 1.1 µM and inactive = higher.

Data on 10 molecules can be found in ChEMBL document CHEMBL1201862, “PubChem BioAssay data set” (2004).

Test systems include HCC 2998; NCI-H522; MDA-MB-231; HCT-116; MCF7; OVCAR-3; RPMI-8226; KM12; T47D; SNB-19; HOP-62; A498; SR; IGROV-1; NCI-H460; ACHN; U-251; SW-620; CAKI-1; CCRF-CEM.
Holding throughout (experiment): growth of human tumour cells (NCI), 48 h

`NS(=O)(=O)c1ccc(NCc2cnc3ccccc3c2)cc1`: the GI50 in the test on HCC 2998 was > 100 µM (inactive); in the test on NCI-H522, 28.1 µM (inactive); in the test on MDA-MB-231, > 100 µM (inactive); in the test with HCT-116, > 100 µM (inactive); in the test with MCF7, > 100 µM (inactive); in the test on OVCAR-3 it was > 100 µM (inactive). In addition, the GI50 in the test with RPMI-8226, in the test on KM12, in the test with T47D, in the test on SNB-19, in the test on HOP-62 and in the test on A498 was > 100 µM (inactive) throughout. Moreover, the GI50 in the test with SR was > 100 µM (inactive); in the test on IGROV-1, 49.4 µM (inactive); in the test with NCI-H460, > 100 µM (inactive); with ACHN it was > 100 µM (inactive); with U-251 it was > 100 µM (inactive); with SW-620 it was > 100 µM (inactive). Further, the GI50 in the test with CAKI-1 is > 100 µM (inactive).
With `COc1ccc(Nc2nc3ccccc3nc2C(=O)O)cc1OC`, the GI50 in the test with HCC 2998 was 71.6 µM (inactive); in the test with NCI-H522, > 100 µM (inactive); in the test with MDA-MB-231 it was 56.2 µM (inactive); with HCT-116, > 100 µM (inactive); in the test on MCF7 it was 40.3 µM (inactive); in the test on OVCAR-3 it was 40.2 µM (inactive). Moreover, the GI50 was 65.8 µM (inactive) in the test with RPMI-8226; 66.8 µM (inactive) in the test with KM12; 33.8 µM (inactive) in the test on T47D; 73.1 µM (inactive) in the test with SNB-19; 34.4 µM (inactive) in the test on HOP-62; 21.3 µM (inactive) with A498. Moreover, the GI50 in the test on CCRF-CEM was 47.3 µM (inactive); in the test with SR it was > 100 µM (inactive); in the test on IGROV-1, 98.4 µM (inactive); with NCI-H460, 45.8 µM (inactive); with ACHN it was 44.8 µM (inactive); in the test on U-251, > 100 µM (inactive). Further, the figures for the GI50 with SW-620 and in the test on CAKI-1 were > 100 µM (inactive) and 29.6 µM (inactive), respectively.
For the molecule `O=C1NC2(CN3CCC2CC3)C(=O)N1CN(Cc1ccccc1)c1ccccc1` (configuration not stated), the GI50 in the test on HCC 2998 was 39.6 µM (inactive); with NCI-H522, 94.6 µM (inactive); in the test on MDA-MB-231, > 100 µM (inactive); in the test with HCT-116 it was > 100 µM (inactive); in the test on MCF7, 47.9 µM (inactive); in the test on OVCAR-3 it was > 100 µM (inactive). Moreover, the GI50 in the test with RPMI-8226 is 28.2 µM (inactive); with KM12 it was > 100 µM (inactive); in the test with T47D, 39 µM (inactive); in the test with SNB-19, > 100 µM (inactive); in the test on HOP-62 it was > 100 µM (inactive); in the test with A498, > 100 µM (inactive). For the same molecule, the GI50 was 25.3 µM (inactive) with SR; > 100 µM (inactive) in the test with IGROV-1; 29.4 µM (inactive) in the test with NCI-H460; 72.8 µM (inactive) in the test with ACHN; > 100 µM (inactive) with U-251; 31.7 µM (inactive) in the test on SW-620. The GI50 with CAKI-1 is > 100 µM (inactive).
Consider `COc1cc2c(c(OC)c1OC)-c1ccc(OC)c(=O)cc1C(NC(=O)COc1ccccc1)CC2` (configuration not stated), for which the GI50 in the test with HCC 2998, with NCI-H522, in the test with MDA-MB-231, in the test with HCT-116, in the test with MCF7 and in the test with OVCAR-3 was < 0.01 µM (active) each time. Besides, the GI50 in the test with RPMI-8226 was < 0.01 µM (active); in the test on KM12, < 0.01 µM (active); in the test on T47D, 39.9 µM (inactive); in the test with SNB-19, < 0.01 µM (active); in the test with HOP-62, < 0.01 µM (active); in the test with A498, < 0.01 µM (active). Further, the GI50 is 0.0162 µM (active) with CCRF-CEM; < 0.01 µM (active) in the test with SR; < 0.01 µM (active) in the test on IGROV-1; < 0.01 µM (active) in the test with NCI-H460; 0.0101 µM (active) with ACHN; < 0.01 µM (active) with U-251. Besides, the GI50 in the test with SW-620 and in the test on CAKI-1 was < 0.01 µM (active) throughout.
Consider `c1cn(C23C4C5C6C4C2C6C53)cn1` (configuration not stated), for which the GI50 with HCC 2998, in the test with NCI-H522, in the test with MDA-MB-231, in the test with HCT-116, in the test with MCF7 and with RPMI-8226 was > 100 µM (inactive) in each case. Also, the GI50 with KM12, in the test on T47D, with SNB-19, in the test on HOP-62, in the test on A498 and in the test with CCRF-CEM was > 100 µM (inactive) throughout. In addition, the GI50 in the test on SR, in the test on IGROV-1, in the test with NCI-H460, in the test with ACHN, in the test on U-251 and in the test on SW-620 was > 100 µM (inactive) in each case.
Regarding `O=C(NCc1ccc(Cl)c(Cl)c1)c1nc2ccccc2nc1NCc1ccc(Cl)c(Cl)c1`, the GI50 with HCC 2998, in the test on NCI-H522, with MDA-MB-231, in the test with HCT-116, in the test with MCF7 and in the test on OVCAR-3 was > 100 µM (inactive) each time. In addition, the GI50 in the test with KM12 is > 100 µM (inactive); in the test on T47D, > 100 µM (inactive); in the test on SNB-19, > 100 µM (inactive); in the test with HOP-62 it was 83.6 µM (inactive); with A498, > 100 µM (inactive); in the test with CCRF-CEM, > 100 µM (inactive). The GI50 in the test on SR, in the test with IGROV-1, in the test on NCI-H460, in the test with ACHN, in the test with U-251 and in the test with SW-620 was > 100 µM (inactive) each time. Besides, in the test with CAKI-1, the GI50 is > 100 µM (inactive).
As to `Oc1c(C2=NNC(c3ccc(Cl)cc3Cl)C2)ccc2ccccc12` (configuration not stated), the GI50 in the test with HCC 2998 was 34.5 µM (inactive); in the test with NCI-H522, 24 µM (inactive); with MDA-MB-231 it was 46.5 µM (inactive); with HCT-116, 33.6 µM (inactive); with MCF7 it was 30.2 µM (inactive); in the test on OVCAR-3, 20.1 µM (inactive). For the same molecule, the GI50 is 32 µM (inactive) with RPMI-8226; 26.2 µM (inactive) in the test with KM12; 62.2 µM (inactive) with T47D; 38.7 µM (inactive) in the test on HOP-62; 71.4 µM (inactive) in the test on A498; 5.26 µM (inactive) with CCRF-CEM. Further, the GI50 was 8.38 µM (inactive) in the test on SR; 14.4 µM (inactive) with IGROV-1; 30.1 µM (inactive) in the test with NCI-H460; 38.5 µM (inactive) in the test with ACHN; 32.5 µM (inactive) in the test on U-251; 35.9 µM (inactive) in the test on SW-620. Further, the GI50 with CAKI-1 was 66.5 µM (inactive).
Turning to `CC12CCC([C@H](C(O)C3CCCCC3)C1=O)C2(C)C` (some centres not stated), the GI50 was > 100 µM (inactive) in the test on HCC 2998; 65.8 µM (inactive) in the test on NCI-H522; > 100 µM (inactive) in the test on MDA-MB-231; > 100 µM (inactive) in the test with HCT-116; > 100 µM (inactive) in the test with MCF7; > 100 µM (inactive) in the test on OVCAR-3. Moreover, the GI50 in the test on RPMI-8226 was 49.4 µM (inactive); in the test with KM12 it was > 100 µM (inactive); in the test on T47D, > 100 µM (inactive); with SNB-19 it was > 100 µM (inactive); with HOP-62, > 100 µM (inactive); in the test with A498, > 100 µM (inactive). Besides, the GI50 is 31.6 µM (inactive) in the test on CCRF-CEM; 22.4 µM (inactive) in the test with SR; > 100 µM (inactive) in the test with IGROV-1; > 100 µM (inactive) in the test with NCI-H460; > 100 µM (inactive) with ACHN; > 100 µM (inactive) with U-251. The GI50 in the test with SW-620 and with CAKI-1 was > 100 µM (inactive) in each case.
For the molecule `COC(=O)[C@]12C3=C(O)C(=O)C[C@H]1OC[C@H]2C=CC3`, the GI50 with HCC 2998 was > 100 µM (inactive); in the test with NCI-H522 it was 20.1 µM (inactive); in the test on MDA-MB-231, > 100 µM (inactive); in the test on HCT-116, > 10 µM (inactive); in the test with MCF7 it was > 100 µM (inactive); in the test with OVCAR-3, > 100 µM (inactive). Further, the GI50 in the test with RPMI-8226, with KM12, in the test with T47D, with SNB-19, in the test on HOP-62 and in the test with A498 was > 100 µM (inactive) throughout. In addition, the GI50 is > 100 µM (inactive) with SR; > 100 µM (inactive) in the test with IGROV-1; > 100 µM (inactive) in the test with NCI-H460; > 100 µM (inactive) with ACHN; > 100 µM (inactive) in the test on U-251; 29.2 µM (inactive) in the test on SW-620. The GI50 in the test with CAKI-1 was > 100 µM (inactive).
`COc1nc(C(=O)NNC(=O)c2nc(OC)c3ccccc3c2-c2ccccc2)c(-c2ccccc2)c2ccccc12`: the GI50 with HCC 2998, in the test on NCI-H522, in the test on MDA-MB-231, with HCT-116, with MCF7 and in the test with OVCAR-3 was > 100 µM (inactive) each time. Besides, the GI50 in the test on RPMI-8226, with KM12, in the test with T47D, in the test on SNB-19, in the test with HOP-62 and in the test on A498 was > 100 µM (inactive) each time. The GI50 is > 100 µM (inactive) with CCRF-CEM; 0.113 µM (active) in the test with SR; > 100 µM (inactive) in the test on IGROV-1; > 100 µM (inactive) with ACHN; > 100 µM (inactive) in the test on U-251; > 100 µM (inactive) in the test on SW-620. Moreover, the GI50 in the test with CAKI-1 is > 100 µM (inactive).
